The values that follow come from PubChem BioAssay (NCI).

SMILES strings stand for the structures. Where “and” joins values, the source holds several entries; their conditions need not be identical. Equal entries are not always repeated.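 In this assay, cells in 96-well plates receive the compound at five concentrations for 48 hours. Endpoints are linearly interpolated between the surrounding concentrations. The concentration for 50% growth inhibition is given as GI50. TGI: total growth inhibition.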 Bounds are passed on as bounds.

What all share (assay): inhibition of tumour cell growth, NCI panel, 48 h
The subject of assay [1] is ACHN renal.
The test system of assay [2] is CCRF-CEM leukemia.
Assay [3] concerns HCT-15 colon.
The subject of assay [4] is KM12 colon.
The subject of assay [5] is MDA-MB-231 breast.
Assay [6] has as its system NCI-H226 lung.
In assay [7] the test system is OVCAR-3 ovarian.
For assay [8], the system named is SW-620 colon.
Assay [9] has as its system U251 CNS.
Assay [10] has as its system UACC-257 melanoma.

Consider `OCc1ccc(-c2nc(-c3ccc4c(c3)OCO4)c(-c3ccccn3)[nH]2)cc1`, for which the GI50 in assay [1] was above 25 µM; in assay [2], above 25000 nM; in assay [3], 15.1 µM; in assay [4], above 25 µM; in assay [5] it was 10.2 µM; in assay [6] it was above 25000 nM. Also, the GI50 was above 25 µM in [7], above 25000 nM in assay [8], above 25 µM in assay [9] and above 25 µM in [10]. Moreover, the TGI in assay [1], in assay [2], in assay [3], in assay [4], in assay [5] and in assay [6] was above 25 µM throughout. Moreover, the TGI in assay [7], in assay [8], in assay [9] and in assay [10] was above 25 µM each time.
Consider `CC[C@]12CN3CCc4c([nH]c5ccccc45)[C@@](C(=O)OC)(c4cc5c(cc4OC)N(C)[C@H]4[C@@](O)(C(=O)OC)[C@H](OC(C)=O)[C@]6(CC)C=CCN7CC[C@]54[C@@H]76)CC(C3)[C@H]1O2` (stereo not given in full), for which the GI50 in assay [1] was 2.14 µM; in [2], 116 nM; in assay [3] it was 2.92 µM; in assay [4], 0.105 µM; in assay [6], 462 nM; in [7] it was 0.0445 µM. Further, the figures for the GI50 in [8], in [9] and in [10] were 155 nM, 0.137 µM and 0.161 µM, respectively. The TGI in [1] was above 100 µM; in assay [2] it was above 50 µM; in assay [3], 9.43 µM and > 28.1 µM; in assay [5], 7.02 µM and > 11 µM; in assay [6], above 50 µM; in assay [8] it was above 100 µM. In addition, the TGI in assay [9] is 34 µM and > 50 µM; in [10], above 100 µM.
`CCCCCCOC(=O)CC1=C(C)/C(=C/c2[nH]c(-c3ccc[nH]3)cc2OC)N=C1C`: the GI50 in assay [1] is 0.0663 µM; in [2] it was 25.6 nM; in assay [3], 0.0315 µM; in assay [4], 0.0535 µM; in assay [5], 0.0336 µM; in assay [6], 137 nM. Further, the GI50 in [7] was 0.168 µM; in assay [8] it was 38.4 nM; in assay [9] it was 0.0675 µM; in [10] it was 0.394 µM. Also, the TGI in [1] is 0.779 µM; in assay [2], 1.56 µM; in [3], 1.14 µM; in assay [4], 1.4 µM; in assay [5], 0.626 µM; in assay [6], 1.06 µM. For the same compound, the TGI in assay [7] was 1.15 µM; in assay [8], 1.35 µM; in assay [9] it was 1.13 µM; in assay [10], 1.51 µM.
As for `Nc1nc(Sc2ccc([N+](=O)[O-])c3nonc23)c2ncn(C3OC(CO)C(O)C3O)c2n1` (stereo not given), the GI50 was 0.609 µM in assay [1]; 198 nM in assay [2]; 0.587 µM in assay [3]; 2.89 µM in assay [4]; 0.549 µM in [5]; 2200 nM in assay [6]. The values for the GI50 in assay [7], in assay [8] and in assay [9] were 2.17 µM, 1120 nM and 0.685 µM, respectively. Further, the TGI is 23.8 µM in [1]; 6.65 µM in assay [2]; 11.9 µM in assay [3]; above 64.1 µM in [4]; 14.8 µM in [5]; 29 µM in [6]. Besides, the TGI in [7] is 24.6 µM; in [8] it was above 35 µM; in assay [9], above 85.1 µM; in [10], above 44.8 µM.
Turning to `COc1cccc(S(=O)(=O)NC2=NCCN2C(=S)SN2CCn3c2nsc3=S)c1`, the GI50 in [1] was 15.6 µM; in assay [2], 32100 nM; in assay [3] it was 21.6 µM; in assay [4], 30.5 µM; in [5], 28.1 µM; in assay [6], 30900 nM. In addition, the GI50 was 25.6 µM in assay [7], 34000 nM in [8], 22 µM in assay [9] and 31.5 µM in [10]. Also, the TGI in [1] is 29.8 µM; in [2], above 100 µM; in assay [3], 43.7 µM; in assay [4] it was 80.1 µM; in [5], 96 µM; in assay [6], above 100 µM. The TGI in assay [7] was 56.5 µM; in [8], above 100 µM; in [9] it was 61.8 µM; in [10], 86.2 µM.
Consider `Cc1cccc2c(=O)c3c(sc12)c(NCCCNCCO)nc1ccccc13`, for which the GI50 is 1.49 µM in [1]; 1570 nM in [2]; 1.51 µM in [3]; 1.72 µM in assay [4]; 1.6 µM in assay [5]; 1600 nM in assay [6]. In addition, the GI50 is 1.74 µM in assay [7], 1430 nM in assay [8], 1.5 µM in [9] and 1.86 µM in assay [10]. For the same compound, the TGI in assay [1] was found to be 2.81 µM; in assay [2], 3.31 µM; in assay [3], 2.96 µM; in [4], 3.25 µM; in assay [5], 3.13 µM; in assay [6], 3.33 µM. Moreover, the TGI in assay [7] was determined as 3.26 µM; in [8], 2.99 µM; in assay [9], 2.96 µM; in assay [10], 3.54 µM.
As for `CCCCCSc1ccc2nc(NC(=O)OCC)sc2c1`, the GI50 in assay [1] is 0.908 µM; in assay [2] it was 628 nM; in assay [3], 0.384 µM; in assay [4] it was 0.409 µM; in assay [5], 0.95 µM; in assay [6], 1950 nM. For the same compound, the GI50 is 0.346 µM in assay [7], 453 nM in assay [8], 0.41 µM in [9] and above 100 µM in assay [10]. The TGI in assay [1], in assay [2], in assay [3], in assay [4], in assay [5] and in assay [6] was above 100 µM in each case. The TGI is 2.14 µM in assay [7], above 100 µM in [8], 11 µM in assay [9] and above 100 µM in assay [10].
Consider `COc1cc(-n2cc(-c3ccc(Cl)cc3)n(-c3ccccc3)c2=O)cc(OC)c1OC`, for which the GI50 in assay [1] was 25.8 µM; in assay [2] it was 2670 nM; in assay [3] it was 8.54 µM; in assay [4], 23.3 µM; in [5] it was 16.4 µM; in [6] it was 29900 nM. Moreover, the GI50 is 16.3 µM in [7], 27100 nM in [8], 23.5 µM in [9] and 15.5 µM in assay [10]. Moreover, the TGI was above 100 µM in assay [1]; above 100 µM in [3]; above 100 µM in assay [4]; above 68.9 µM in assay [5]; 97.1 µM in assay [6]; above 86.2 µM in assay [7]. Further, the values for the TGI in assay [8], in assay [9] and in assay [10] were above 100 µM, above 100 µM and 71.9 µM, respectively.
Regarding `Nc1nc(-c2cccnc2)cc(-c2cc(-c3cccnc3)nc(N)n2)n1`, the TGI in assay [1], in [2], in assay [3], in [4], in [5] and in assay [6] was above 100 µM in each case. Further, the TGI in [7], in assay [8], in [9] and in assay [10] was above 100 µM in each case.
Regarding `COc1ccc(C(=O)/C=C/c2cc(-c3ccc(OC)c(OC)c3)n[nH]2)cc1OC`, the GI50 in assay [1] is 1.59 µM; in [2] it was 364 nM; in [3] it was 1.09 µM; in assay [4], 0.625 µM; in assay [5] it was 1.88 µM; in [6], 1660 nM. For the same compound, the GI50 in [7] was 1.96 µM; in [8], 1500 nM; in assay [9] it was 1.2 µM; in assay [10], 2.16 µM. Also, the TGI in [1] was 3.83 µM; in assay [2], 5.52 µM; in assay [3], 5.39 µM; in assay [4] it was 2.08 µM; in assay [5], 6.38 µM; in assay [6], 4.23 µM. Besides, the TGI in assay [7] was found to be 4.72 µM; in assay [8] it was 5.41 µM; in [9], 2.63 µM; in assay [10], 5.02 µM.
With `NC(=O)c1cn(C2CC(O)C(CO)O2)c2ncnc(N)c12` (stereo not given), the GI50 in [1] was 3.62 µM; in [2] it was 88.8 nM; in assay [3], 3.89 µM; in [4], 5.18 µM; in [5], 3.26 µM; in assay [6], 3190 nM. Besides, the GI50 is 4.09 µM in assay [7], 2580 nM in [8], 17.7 µM in assay [9] and 11 µM in assay [10]. For the same compound, the TGI was above 58.1 µM in [1]; above 100 µM in assay [2]; 55.2 µM in assay [3]; 28.4 µM in assay [4]; 21.2 µM in [5]; 17.4 µM in assay [6]. Also, the TGI was 19.6 µM in assay [7], 20.6 µM in [8], above 100 µM in [9] and above 63.4 µM in assay [10].
On to `Cc1[nH]c2ccccc2c1CO`, for which the GI50 was 22.8 µM in [1]; 32800 nM in assay [2]; 18.5 µM in [3]; 4.84 µM in [4]; 18.1 µM in assay [5]; 25800 nM in [6]. The GI50 is 5.54 µM in assay [7], 15100 nM in assay [8], 21.2 µM in assay [9] and 24.1 µM in [10]. Further, the TGI in assay [1] is 88.8 µM; in [2], above 100 µM; in [3] it was 93.2 µM; in assay [4] it was 19.4 µM; in assay [5] it was 54.7 µM; in [6], 93.9 µM. In addition, the TGI in [7] amounted to 19.6 µM; in assay [8], 28.4 µM; in assay [9], 43.9 µM; in assay [10], 60.2 µM.
Turning to `CCOC(=O)c1c(NN2CCN(CC(F)(F)F)CC2)oc(/C=C2\C=Nc3ncccc32)c1O`, the GI50 was 5.85 µM in [1]; 6810 nM in assay [2]; 6.59 µM in assay [3]; 3.45 µM in [4]; 6.72 µM in assay [5]; 1730 nM in [6]. Also, the GI50 is 4.06 µM in assay [7], 808 nM in [8], 4.01 µM in assay [9] and 6.45 µM in [10]. In addition, the TGI is 77.4 µM in assay [1]; above 100 µM in [2]; 46.7 µM in assay [3]; 15.3 µM in assay [4]; 32.4 µM in assay [5]; 27 µM in [6]. The TGI in [7] turned out to be 19.4 µM; in [8], 22.9 µM; in assay [9], 28 µM; in assay [10], 25.1 µM.
Take `CCCCN(CCCC)P(=O)(Oc1ccccc1)Oc1ccccc1`: the GI50 in assay [1] is 5.78 µM; in [2], 8350 nM; in [3], 4.73 µM; in assay [4], 8.1 µM; in assay [5], 8.08 µM; in assay [6] it was 10400 nM. Also, the GI50 was 6.44 µM in [7], 5410 nM in assay [8], 5.59 µM in assay [9] and 8.04 µM in assay [10]. Also, the TGI in assay [1] worked out at 19.3 µM; in assay [2], 59.3 µM; in assay [3] it was 22 µM; in assay [4] it was 21.4 µM; in assay [5], 23.3 µM; in [6], 25.4 µM. Further, the TGI in [7] was 18.7 µM; in assay [8], 19.4 µM; in [9], 19.1 µM; in [10] it was 22.4 µM.
Consider `O=C1CN=C(c2ccc[nH]2)c2cc(Cl)ccc2N1`, for which the GI50 in assay [1] was above 100 µM; in assay [2], 30600 nM; in [3], 19.1 µM; in [4], above 100 µM; in [5] it was above 100 µM; in assay [6], above 100000 nM. For the same compound, the GI50 in assay [7] is above 100 µM; in assay [8], above 100000 nM; in assay [9], 71.8 µM; in [10], above 100 µM. Also, the TGI in assay [1], in assay [2], in assay [3], in [4], in [5] and in assay [6] was above 100 µM in each case. The TGI in assay [7], in assay [8], in [9] and in [10] was above 100 µM each time.
